Laboratory results taken from publication doi:10.1101/2024.08.19.608619, “Discovery of potent SARS-CoV-2 nsp3 macrodomain inhibitors uncovers lack of translation to cellular antiviral response” (bioRxiv, 2024).
Read-outs that look alike come from different tables or passages of the source.

Assays:
Assay in all cases: biochemical
Set-up in all cases: In vitro kinase panel profiling, per cent remaining kinase activity at 10 uM
EphB4(h) = biological target: T1, EphB4(h) (Homo sapiens, UniProt P54760); conditions: atp_concentration=10, read-out: % of control remaining
T1 sequence (P54760 1-987): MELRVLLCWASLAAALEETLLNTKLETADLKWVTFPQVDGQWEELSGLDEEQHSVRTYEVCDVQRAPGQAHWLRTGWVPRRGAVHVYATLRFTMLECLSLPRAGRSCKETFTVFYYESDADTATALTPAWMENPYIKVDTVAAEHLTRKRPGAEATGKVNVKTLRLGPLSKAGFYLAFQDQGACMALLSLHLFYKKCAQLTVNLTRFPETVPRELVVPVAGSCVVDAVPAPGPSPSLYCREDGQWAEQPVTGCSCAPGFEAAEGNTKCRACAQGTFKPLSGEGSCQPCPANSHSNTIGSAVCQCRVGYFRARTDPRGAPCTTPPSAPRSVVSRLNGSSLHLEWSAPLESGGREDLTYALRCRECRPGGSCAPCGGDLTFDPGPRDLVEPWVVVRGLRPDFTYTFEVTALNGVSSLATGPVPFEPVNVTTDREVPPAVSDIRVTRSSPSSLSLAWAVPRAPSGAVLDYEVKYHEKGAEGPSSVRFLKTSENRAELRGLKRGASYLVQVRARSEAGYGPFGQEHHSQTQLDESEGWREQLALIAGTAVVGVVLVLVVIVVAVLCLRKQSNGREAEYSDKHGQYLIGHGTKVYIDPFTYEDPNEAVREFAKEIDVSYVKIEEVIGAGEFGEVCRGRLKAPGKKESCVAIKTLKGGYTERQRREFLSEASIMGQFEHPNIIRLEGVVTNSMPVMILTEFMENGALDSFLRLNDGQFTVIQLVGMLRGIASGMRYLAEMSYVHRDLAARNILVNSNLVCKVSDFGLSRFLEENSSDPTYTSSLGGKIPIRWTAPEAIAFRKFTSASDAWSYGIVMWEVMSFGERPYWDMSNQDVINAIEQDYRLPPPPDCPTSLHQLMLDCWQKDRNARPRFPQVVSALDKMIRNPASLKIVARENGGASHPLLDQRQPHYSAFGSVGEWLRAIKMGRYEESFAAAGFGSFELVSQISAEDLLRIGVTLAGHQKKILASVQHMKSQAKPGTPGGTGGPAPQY
Text: (§1) We derisk potential for off-target activity by profiling the compound in a CEREP panel, a standard secondary pharmacology assessment, as well as a kinase panel to derisk a potential hinge-binding motif in our leads, and a PARP panel to derisk activity against human […]. Reassuringly, the compounds are selective, with the only off-targets being moderate human CHRM2 and KOR receptors activity associated with ASAP-0011198.

PI3 Kinase (p120γ)(h) = biological target: T2, PI3 Kinase (p120γ)(h) (Homo sapiens, UniProt P48736); conditions: atp_concentration=100, read-out: % of control remaining
T2 construct: gene PIK3CG
T2 sequence (P48736 whole entry): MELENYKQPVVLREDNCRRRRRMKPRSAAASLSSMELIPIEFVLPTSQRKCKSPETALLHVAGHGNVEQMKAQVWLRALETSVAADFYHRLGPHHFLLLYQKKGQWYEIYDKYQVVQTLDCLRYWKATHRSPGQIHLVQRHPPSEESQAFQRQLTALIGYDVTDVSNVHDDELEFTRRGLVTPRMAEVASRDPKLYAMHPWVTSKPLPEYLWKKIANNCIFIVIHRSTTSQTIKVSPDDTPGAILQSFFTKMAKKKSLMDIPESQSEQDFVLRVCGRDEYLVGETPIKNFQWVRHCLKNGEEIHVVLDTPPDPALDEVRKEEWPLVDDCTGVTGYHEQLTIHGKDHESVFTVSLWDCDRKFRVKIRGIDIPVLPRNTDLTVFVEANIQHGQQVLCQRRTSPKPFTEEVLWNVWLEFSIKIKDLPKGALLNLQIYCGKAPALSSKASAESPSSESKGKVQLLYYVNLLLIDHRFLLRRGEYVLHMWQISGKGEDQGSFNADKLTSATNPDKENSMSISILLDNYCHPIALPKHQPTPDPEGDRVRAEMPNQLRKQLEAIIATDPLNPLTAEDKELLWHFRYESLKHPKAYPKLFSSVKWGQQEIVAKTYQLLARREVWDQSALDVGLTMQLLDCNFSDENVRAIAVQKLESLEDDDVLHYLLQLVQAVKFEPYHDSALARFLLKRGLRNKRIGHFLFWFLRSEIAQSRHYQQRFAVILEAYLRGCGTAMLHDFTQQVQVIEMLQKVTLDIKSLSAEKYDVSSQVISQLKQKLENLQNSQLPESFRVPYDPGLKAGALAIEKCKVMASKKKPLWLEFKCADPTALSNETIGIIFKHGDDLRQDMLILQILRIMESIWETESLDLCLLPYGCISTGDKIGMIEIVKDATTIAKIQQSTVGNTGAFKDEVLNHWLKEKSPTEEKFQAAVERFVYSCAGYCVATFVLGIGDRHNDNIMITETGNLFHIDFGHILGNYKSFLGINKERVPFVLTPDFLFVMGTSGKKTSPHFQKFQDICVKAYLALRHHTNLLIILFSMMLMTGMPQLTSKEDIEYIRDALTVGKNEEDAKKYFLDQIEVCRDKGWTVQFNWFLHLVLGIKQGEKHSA
Text: as §1

LOK(h) = biological target: T3, LOK(h) (Homo sapiens, UniProt O94804); conditions: atp_concentration=120, read-out: % of control remaining
T3 construct: gene STK10
T3 sequence (O94804 whole entry): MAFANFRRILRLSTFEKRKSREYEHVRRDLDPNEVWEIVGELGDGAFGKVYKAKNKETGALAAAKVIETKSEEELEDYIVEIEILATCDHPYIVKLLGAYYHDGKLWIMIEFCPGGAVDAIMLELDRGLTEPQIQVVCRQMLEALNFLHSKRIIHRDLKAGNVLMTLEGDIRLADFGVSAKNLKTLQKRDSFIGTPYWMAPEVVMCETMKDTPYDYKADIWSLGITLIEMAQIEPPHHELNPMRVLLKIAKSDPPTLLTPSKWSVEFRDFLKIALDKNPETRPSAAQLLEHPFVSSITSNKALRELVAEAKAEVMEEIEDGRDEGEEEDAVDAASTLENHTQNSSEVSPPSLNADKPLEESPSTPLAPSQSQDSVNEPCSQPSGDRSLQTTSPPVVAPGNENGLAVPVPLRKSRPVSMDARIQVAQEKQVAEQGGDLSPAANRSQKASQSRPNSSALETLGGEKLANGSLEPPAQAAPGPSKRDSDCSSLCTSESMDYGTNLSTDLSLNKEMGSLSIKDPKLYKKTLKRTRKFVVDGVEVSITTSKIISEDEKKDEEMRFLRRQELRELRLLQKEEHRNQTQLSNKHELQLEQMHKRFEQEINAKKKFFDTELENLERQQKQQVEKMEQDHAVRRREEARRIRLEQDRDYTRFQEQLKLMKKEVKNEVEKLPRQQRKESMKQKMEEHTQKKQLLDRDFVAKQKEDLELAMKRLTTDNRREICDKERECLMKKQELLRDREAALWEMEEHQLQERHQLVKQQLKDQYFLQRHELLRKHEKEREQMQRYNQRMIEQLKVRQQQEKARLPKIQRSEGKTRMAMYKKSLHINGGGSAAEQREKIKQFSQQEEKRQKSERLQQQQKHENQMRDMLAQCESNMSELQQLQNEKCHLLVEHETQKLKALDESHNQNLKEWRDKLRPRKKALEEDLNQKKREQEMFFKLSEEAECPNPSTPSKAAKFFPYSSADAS
Text: as §1

CaMKI(h) = biological target: T4, CaMKI(h) (Homo sapiens, UniProt Q14012); conditions: atp_concentration=200, read-out: % of control remaining
T4 construct: gene CAMK1
T4 sequence (Q14012 whole entry): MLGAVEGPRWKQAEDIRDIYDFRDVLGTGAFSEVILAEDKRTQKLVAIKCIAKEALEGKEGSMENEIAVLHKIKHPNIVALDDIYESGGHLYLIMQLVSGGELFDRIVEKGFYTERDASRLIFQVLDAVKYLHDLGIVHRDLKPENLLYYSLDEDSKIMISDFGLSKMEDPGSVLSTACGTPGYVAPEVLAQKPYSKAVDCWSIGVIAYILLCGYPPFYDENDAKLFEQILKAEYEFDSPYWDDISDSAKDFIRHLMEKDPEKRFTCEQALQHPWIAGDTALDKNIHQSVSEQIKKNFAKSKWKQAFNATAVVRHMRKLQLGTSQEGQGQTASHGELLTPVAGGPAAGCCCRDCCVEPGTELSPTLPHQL
Text: as §1

IRAK4(h) = biological target: T5, IRAK4(h) (Homo sapiens, UniProt Q9NWZ3); conditions: atp_concentration=200, read-out: % of control remaining
T5 sequence (Q9NWZ3 1-460): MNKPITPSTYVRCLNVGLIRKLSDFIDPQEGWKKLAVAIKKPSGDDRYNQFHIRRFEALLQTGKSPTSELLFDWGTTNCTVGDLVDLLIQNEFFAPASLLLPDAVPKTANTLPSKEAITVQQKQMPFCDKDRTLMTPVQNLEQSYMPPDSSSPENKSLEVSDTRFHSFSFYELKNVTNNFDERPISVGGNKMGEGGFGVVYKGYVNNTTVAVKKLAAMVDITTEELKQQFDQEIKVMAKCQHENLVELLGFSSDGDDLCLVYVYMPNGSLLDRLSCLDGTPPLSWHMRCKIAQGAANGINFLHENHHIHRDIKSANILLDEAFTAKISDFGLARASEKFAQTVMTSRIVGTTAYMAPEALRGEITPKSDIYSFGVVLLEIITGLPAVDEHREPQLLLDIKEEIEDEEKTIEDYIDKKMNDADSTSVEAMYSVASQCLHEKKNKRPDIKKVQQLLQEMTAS
Text: as §1

IKKα(h) = biological target: T6, IKKα(h) (Homo sapiens, UniProt O15111); conditions: atp_concentration=10, read-out: % of control remaining
T6 construct: gene CHUK
T6 sequence (O15111 1-745): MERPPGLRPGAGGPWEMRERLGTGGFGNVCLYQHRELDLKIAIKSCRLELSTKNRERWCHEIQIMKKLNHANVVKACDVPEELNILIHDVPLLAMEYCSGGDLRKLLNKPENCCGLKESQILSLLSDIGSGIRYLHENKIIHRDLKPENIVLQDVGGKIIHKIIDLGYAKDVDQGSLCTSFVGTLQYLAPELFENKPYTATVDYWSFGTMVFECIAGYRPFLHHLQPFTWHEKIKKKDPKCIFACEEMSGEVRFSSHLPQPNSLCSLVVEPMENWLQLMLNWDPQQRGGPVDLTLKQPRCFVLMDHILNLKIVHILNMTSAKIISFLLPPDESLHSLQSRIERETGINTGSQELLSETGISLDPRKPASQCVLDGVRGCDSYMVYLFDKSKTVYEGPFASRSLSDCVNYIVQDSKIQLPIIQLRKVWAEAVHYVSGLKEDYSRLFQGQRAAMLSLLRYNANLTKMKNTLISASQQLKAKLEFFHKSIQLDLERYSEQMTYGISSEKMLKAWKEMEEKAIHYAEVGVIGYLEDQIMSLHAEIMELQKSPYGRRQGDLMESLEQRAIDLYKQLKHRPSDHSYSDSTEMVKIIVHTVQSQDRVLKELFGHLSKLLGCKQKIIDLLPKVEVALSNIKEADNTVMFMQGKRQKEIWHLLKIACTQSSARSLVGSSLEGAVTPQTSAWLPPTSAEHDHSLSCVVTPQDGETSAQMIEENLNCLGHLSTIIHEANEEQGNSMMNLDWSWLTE
Text: as §1

In the case of `CC(C)[C@@H](Nc1ncnc2[nH]c(-c3cnn(C)c3C#N)cc12)c1ccc2c(n1)OCCO2` [ASAP-0010716], the remaining activity at 10 µM (EphB4(h); batch_name=ASAP-0010716-002) is reported as 91%, the remaining activity at 10 µM (PI3 Kinase (p120γ)(h); batch_name=ASAP-0010716-002) is reported as 78% and the remaining activity at 10 µM (LOK(h); batch_name=ASAP-0010716-002) is reported as 106%. For the same molecule, the remaining activity at 10 µM (CaMKI(h); batch_name=ASAP-0010716-002) was 95%, the remaining activity at 10 µM (IRAK4(h); batch_name=ASAP-0010716-002) was 99% and the remaining activity at 10 µM (IKKα(h); batch_name=ASAP-0010716-002) was 104%.

In the case of `Cc1nn(C)cc1-c1cc2c(NC(c3ccc4c(c3)S(=O)(=O)CCC4)C(C)C)ncnc2[nH]1` (stereo not drawn) [ASAP-0011446], the remaining activity at 10 µM (EphB4(h); batch_name=ASAP-0011446-002) is reported as 98%, the remaining activity at 10 µM (PI3 Kinase (p120γ)(h); batch_name=ASAP-0011446-002) is reported as 96% and the remaining activity at 10 µM (LOK(h); batch_name=ASAP-0011446-002) is reported as 93%. For the same molecule, the remaining activity at 10 µM (CaMKI(h); batch_name=ASAP-0011446-002) was 101%, the remaining activity at 10 µM (IRAK4(h); batch_name=ASAP-0011446-002) was 107% and the remaining activity at 10 µM (IKKα(h); batch_name=ASAP-0011446-002) was 94%.

For `COc1ccc([C@H](Cc2nnn[nH]2)NC(=O)c2ncnc3[nH]ccc23)cc1` [ASAP-0015381], the remaining activity at 10 µM (EphB4(h); batch_name=ASAP-0015381-001) was 106%, the remaining activity at 10 µM (PI3 Kinase (p120γ)(h); batch_name=ASAP-0015381-001) was 88% and the remaining activity at 10 µM (LOK(h); batch_name=ASAP-0015381-001) was 102%. The remaining activity at 10 µM (CaMKI(h); batch_name=ASAP-0015381-001) was 103%, the remaining activity at 10 µM (IRAK4(h); batch_name=ASAP-0015381-001) was 109% and the remaining activity at 10 µM (IKKα(h); batch_name=ASAP-0015381-001) was 98%.
